Patent US4765972A (priority 1986, dated 1988)

Experiments:
[1] = system: 54.3 kDa polypeptide (tubulin subunit); assay: Photolabelling of calf brain homogenate with ^3 H-NABV, 54.3 kDa polypeptide; type: binding
Description: (§1) Tissue homogenate high speed supernatant and pellet fractions were obtained by homogenizing 1 gram of calf brain in 10 ml volumes of 0.05 M potassium phosphate buffer, pH 7.4, for one minute with a Model PCU Polytron homogenizer with a PT-10-ST probe operated at 50% maximum power (Brinkmann Instruments, Westbury, NY). The brain tissue homogenate was collected after filtering through one layer of cheesecloth. Brain tissue high speed supernatant fractions were prepared by centrifuging the homogenates at 100,000×g for 60 minutes at 4° C. The resulting pellet was washed twice with five times its original volume of buffer, and recentrifuged as described. […] and supernatant fractions were stored in small aliquots in liquid nitrogen and thawed only once.
(§2) The standard photolabelling mixture used contained 50 nM ^3 H-NABV (50.6 Ci/mmol), 4% dimethylsulfoxide, […] potassium phosphate buffer, pH 7.0, and 2 mg/ml of tissue homogenate or high speed pellet or supernatant fractions in a final volume of 0.05 ml in polyvinylchloride V-microtiter wells (Dynatech Labs, Inc., Alexandria, VA) in a 25° C. water bath. Photolabelling mixtures were incubated for 15 minutes at 25° C. before photolysis. Photoactivation was performed for 10-20 minutes with a UV light equipped with two 15 W self-filtering 302 nm lamps (Model xx-15, Ultra-Violet Products, Inc., San Gabriel, CA), placed 3.4 cm above the photolabelling mixture. […] Photoactivated samples were immediately processed for SDS-PAGE or frozen at -70° C.
(§3) Equal volumes of SDS sample buffer were added to photolabelled mixtures in microliter wells. The mixtures were transferred to 0.5 ml centrifuge tubes. After heating for five minutes at 100° C. on a heating block, the mixtures were cooled on ice and sonicated for five seconds, cooled, and 0.08 ml aliquots of the mixtures were applied to separate wells of a 1.5 mm thick polyacrylamide slab gel.
(§4) Electrophoresis was performed as described by Laemmli in Nature (Lond.) 227, 680-685 (1970) with a linear polyacrylamide gradient from 9.7% acrylamide, 0.26% bis-acrylamide and 10% glycerol, to 16.6% acrylamide, 0.44% bis-acrylamide, and 17% glycerol using a Bio-Rad slab gel apparatus (Model 220, Richmond, CA) at 8 mA/gel for sixteen hours. Following fixation and staining of the gel, in 0.25% Coomassie brilliant blue, 45% methanol and 10% acetic acid, the lanes of stained polypeptide corresponding to each sample slot were cut and sliced into 1.0 mm slices. Each slice was incubated with 0.3 ml 30% H2 O2 in a closed scintillation vial at 100° C. for one hour to solubilize the gel slice, with radioactivity subsequently quantitated. The molecular weights of radioactive macromolecules were estimated by their mobilities relative to standard proteins of known molecular weights. (Bio-Rad, Richmone, CA). The radioactivity of photolabelled components was quantitated in triplicate by adding the dpm in each 1 mm gel slice through the radioactive peak.
(§5) The specific photolabelling was obtained by subtracting the nonspecific linear curve from the mixed biphasic profile.

[2] = system: 21.5 kDa polypeptide; assay: Photolabelling of calf brain homogenate with ^3 H-NABV, 21.5 kDa polypeptide; type: binding
Description: as §1, §2, §3, §4, §5

[3] = system: 150-180 kDa surface membrane glycoprotein (gp150-180); assay: Photoaffinity labelling of purified plasma membranes with ^125 I-NASV; type: binding, Chinese hamster; details: for increase of radiolabelling of the 150-180 kDa component versus drug-sensitive parental cells: plasma membranes
Description: (§6) Cell lines were cultured as described by Peterson et al., Cancer Res. 43, 222-228 (1983) and by Meyers et al., J. Cell. Biol. 100, 588-597 (1985). Vincristine-resistant (DC-3F/VCRd-5L, 2750-fold resistant) and actinomycin D-resistant (DC=3F/ADX, 2450-fold resistant) variants were selected from Chinese hamster lung (DC-3F) cells as described in the above-cited articles. The drug-sensitive revertant (DC-3F/ADX-U, 30-fold resistant to actinomycin D) was obtained from DC-3F/ADX cells grown in the absence of drugs. The resistant cells expressed a typical multidrug-resistant phenotype as typified by cross-resistance to a number of unrelated natural product compounds. Whole cell particulate fractions were prepared by the sonication of drug-sensitive or drug-resistant cells in 50 mM potassium phosphate buffer (pH 7.4), followed by centrifugation at 100,000×g for one hour. The particulate pellet was washed by resuspending in the same buffer, and the whole cell particulate fraction was obtained by a second centrifugation. Purified plasma membranes were prepared by sucrose density gradient centrifugation as described in Peterson et al in J. Supramolecular Structure 9, 289-298 (1978). Protein concentrations were determined by the procedure of Lowry et al., J. Biol. Chem., 193, 265-275 (1951).
Photolabelling of membrane samples (50 micrograms protein) was performed in 40 nM potassium phosphate buffer (pH 7.0) containing 4% Me2 SO and 50 nM of either ^3 H-NABV (0.1 microCi) or ^125 I-NASV (0.2 microCi) in a final volume of 0.050 ml. […] SDS-PAGE of 5-15% gradient gels containing 4.5 M urea, fluorography, and autoradiography were performed as described by Felsted et al. in Blood 66, 606-613 (1985). The quantitation of radiolabelling was accomplished by cutting appropriate areas from the gel and counting the pieces in a gamma counter.
A plasma membrane localization for the 150-180 kDa component was established by photoaffinity labelling sucrose density gradient purified plasma membranes from drug-sensitive and drug-resistant cells with ^3 H-NABV. […] These membranes, as well as membranes from another multidrug-resistant variant (DC-3F/ADX) originally selected for resistance to actinomycin D and from a revertant (DC-3F/ADX-U) obtained from the DC-3F/ADX variant were also photoaffinity labelled with ^125 I-NASV. […] In contrast, radiolabelling of the 150-180 kDa component in the DC-3F/ADX-U revertant cells was increased by only about 15-fold. […] In other studies, a number of drug-sensitive cell lines have been shown by immunoblottings to have barely detectable levels of analogous 150-180 kDa surface membrane glycoproteins compared to the corresponding multidrug-resistant variants. […]

[4] = system: P388 murine leukemic cells; assay: Growth inhibition of exponentially growing P388 cells; type: cell-based; details: Mus musculus; 72 hours exposure; exponentially growing P388 cells; read-out: IC50
Description: Thus, NABV is ideal for probing intracellular Vinca alkaloid interactions because it retains the known biochemical and pharmacological properties of this class of drugs.

[5] = system: tubulin; assay: Tubulin-dependent GTP hydrolysis; type: biochemical; details: both drugs at similar concentrations
[6] = system: microtubule; assay: In vitro microtubule assembly; type: biochemical; details: both drugs at similar concentrations
[7] = system: 150-180 kDa surface membrane glycoprotein (gp150-180); assay: Immunoprecipitation of ^125 I-NASV photolabelled, detergent solubilized membranes with antibody specific for gp150-180; type: binding, Chinese hamster; details: DC-3F/VCRd-5L membranes, vinblastine
Description: Immunoprecipitations were performed by extracting membranes (20 micrograms protein) for fifteen minutes at 4° C. with 100 microliters of 50 mM Tris-HCl buffer (pH 7.0) containing 150 mM NaCl, 1% Triton X-100, 1% sodium deoxycholate, 0.1% SDS, 1 mM ethylenediamine tetraacetic acid, 1 mM phenylmethylsulfonylfluoride, and 10 mg/ml Trayslol (Boehringer Mannheim, Indianapolis, IN). The mixtures were then incubated for one hour at 5° C. with 10 microliters rabbit polyclonal antibody specific for multidrug-resistant 150-180 kDa surface membrane glycoprotein (gp150-180).Immune complexe were obtained by incubating the mixture with Protein A-Sepharose (Pharmacia, Piscataway, NJ) for one hour at 5° C. and recovering the beads after washing four times. […]
(§7) Photolabelling of membrane samples (50 micrograms protein) was performed in 40 nM potassium phosphate buffer (pH 7.0) containing 4% Me2 SO and 50 nM of either ^3 H-NABV (0.1 microCi) or ^125 I-NASV (0.2 microCi) in a final volume of 0.050 ml. […] The quantitation of radiolabelling was accomplished by cutting appropriate areas from the gel and counting the pieces in a gamma counter.
The radiolabelled 150-180 kDa polypeptide was immunoprecipitated only from membrane extracts of drug-resistant cells. No radioactivity was precipitated when nonimmune serum was used in place of the specific antibody. […]

[8] = system: tubulin; assay: Tubulin aggregation; type: biochemical; details: both drugs at similar concentrations
[9] = system: 150-180 kDa surface membrane glycoprotein (gp150-180); assay: Photoaffinity labelling of cell particulate fractions / plasma membranes with ^3 H-NABV, competition by vinblastine; type: binding, Chinese hamster
Description: as §6, with “The particulate pellet was washed by resuspending in the same buffer, and the whole cell particulate fraction was obtained by a second centrifugation. Purified plasma membranes were prepared by sucrose density gradient centrifugation as described in Peterson et al in J. Supramolecular Structure 9, 289-298 (1978).” left out
as §7, with “counter. […]” for “counter.”

[10] = In-vitro NABV metabolism in calf brain homogenates; type: in vitro ADME; details: dark, 30-60 minutes at 0°, 25°, and 37° C.
Description: In-vitro NABV Metabolism Calf brain homogenates (100 micrograms protein) were incubated with 3H-NABV under standard photolabelling conditions for 30 minutes at 25° C. in the absence of UV light. The mixture was then extracted with 1 ml chloroform and analyzed for radioactive materials in the organic extract by silica gel thin layer chromatography using Solvent I.
This was confirmed by incubating ^3 H-NABV with brain homogenates in the dark for 30-60 minutes at 0°, 25°, and 37° C., subsequently extracting the mixtures with chloroform, and analyzing for radioactive metabolites by silica gel thin layer chromatography and high pressure liquid chromatography. A single radioactive spot corresponded to the Rf of NABV and accounted for more than 98% of the recovered radioactivity.

[11] = 0.44 micromoles ^3 H-NABV, competitor 1-22 micromoles
[12] = corrected for nonspecific labelling, apparent, not a true equilibrium constant, read-out: half maximal saturation photolabelling
[13] = saturation photolabelling experiments

COc1cccc2c1C(=O)c1c(O)c3c(c(O)c1C2=O)C[C@@](O)(C(C)=O)C[C@@H]3O[C@H]1C[C@H](N)[C@H](O)[C@H](C)O1 [daunorubicin]
effect of increasing concentrations of competitor on photolabelling [1, 11]: negligible effects | effect of increasing concentrations of competitor on photolabelling [2, 11]: negligible effects

Nc1ccc(C(=O)O)cc1 [p-aminobenzoic acid]
reduction of photolabelling by nitrene scavenger ([1]; 100-fold excess over [^3 H]-NABV): 25% | further reduction of photolabelling by nitrene scavenger ([1]; up to 10^4 -fold molar excess): no significant further reduction | effect of nitrene scavenger on photolabelling ([2]; 10^3 -fold molar excess): no significant effect | reduction of photolabelling by nitrene scavenger ([2]; 10^4 -fold molar excess): 30%

CC[C@]1(O)C[C@@H]2CN(CCc3c([nH]c4ccccc34)[C@@](C(=O)OC)(c3cc4c(cc3OC)N(C)[C@H]3[C@@](O)(C(=O)OC)[C@H](OC(C)=O)[C@]5(CC)C=CCN6CC[C@]43[C@@H]65)C2)C1 [vinblastine]
reduction of radiolabelling of the 150-180 kDa component ([3]; drug-resistant variants, ^125 I-NASV, 10 micromoles vinblastine): 80-90% | radiolabelling of the 150-180 kDa component in the presence of vinblastine ([3]; parental and revertant cells, ^125 I-NASV, 10 micromoles vinblastine): completely absent | IC50 [4]: 0.6 nM | effect on tubulin-dependent GTP hydrolysis [5]: inhibit tubulin-dependent GTP hydrolysis | effect on in vitro microtubule assembly [6]: inhibit in vitro microtubule assembly | reduction of radiolabel in the immunoprecipitate [7]: 96% | effect on tubulin aggregation [8]: induce tubulin aggregation | reduction of radiolabelling of the 150-180 kDa component ([9]; sucrose density gradient purified plasma membranes, 10 micromole vinblastine): 59% | radiolabelling of the 150-180 kDa component in the presence of vinblastine ([9]; whole cell particulate fractions, DC-3F/VCRd-5L, 10 micromoles vinblastine): substantially reduced

N-(p-azido-3-[^125 I-]-salicyl-N'-beta-aminoethylvindesine [^125 I-NASV]
increase of radiolabelling of the 150-180 kDa component versus drug-sensitive parental cells ([3]; DC-3F/ADX-U revertant cells): about 15 fold | increase of radiolabelling of the 150-180 kDa component versus drug-sensitive parental cells ([3]; drug-resistant variants (DC-3F/VCRd-5L, DC-3F/ADX)): up to 150 fold

N-(p-azido-[3,4-^3 H]benzoyl)-N'-beta-aminoethylvindesine [^3 H-NABV]
metabolism under standard photolabelling conditions [10]: no appreciable metabolism | recovered radioactivity in the single spot corresponding to the Rf of NABV ([10]; TLC and HPLC): more than 98% | maximum saturable incorporation [1]: 5.5 pmol ^3 H-NABV bound/mg of calf brain homogenate protein | Kd [1, 12]: 208 nM | percent of total labelling ascribed to nonspecific labelling [1, 13]: 48% | maximum saturable incorporation [2]: 0.9 pmol ^3 H-NABV bound/mg of calf brain homogenate protein | Kd [2, 12]: 95 nM | percent of total labelling ascribed to nonspecific labelling [2, 13]: 51%
